Measurements published in patent US8530489B2 (Vertex Pharmaceuticals Incorporated, priority 2006, dated 2013).

Columns and labels:
Type in all cases: biochemical
[1] = target: PLK1 (Homo sapiens, UniProt P53350); assay: PLK1 Inhibition Assay I (radioactive-phosphate incorporation); conditions: Ki(app); PLK1 Inhibition Assay I or II (table does not say which)
In short: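 Ki(app) values came from non-linear regression of initial rates after background subtraction, with phosphopeptide measured by phosphocellulose filter binding and scintillation counting. PLK1 at 2 nM was preincubated with compound (typically from 10 μM, 2-fold dilutions) for 10 min, then run 240 min at 25° C with 350 μM [γ-33P]ATP and 450 μM peptide substrate in HEPES pH 7.5 buffer.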

[2] = target: T1, PLK3 (S38-A340) (Homo sapiens, UniProt Q9H4B4); assay: PLK3 Inhibition Assay (radioactive-phosphate incorporation); conditions: selectivity ratio, PLK3 over PLK1
T1 construct: in the presence of 5 nM PLK3 (S38-A340)
Protocol: (§1) The compounds of the present invention are evaluated as inhibitors of human PLK kinase using the following assays.
Compounds were screened for their ability to inhibit PLK3 using a radioactive-phosphate incorporation assay. Assays were carried out in a mixture of 25 mM HEPES (pH 7.5), 10 mM MgCl2, and 1 mM DTT. Final substrate concentrations were 75 μM [γ-33P]ATP (60 mCi 33P ATP/mmol ATP, Amersham Pharmacia Biotech/Sigma Chemicals) and 10 μM peptide (SAM68 protein Δ332-443). Assays were carried out at 25° C. in the presence of 5 nM PLK3 (S38-A340). An assay stock buffer solution was prepared containing all of the reagents listed above, with the exception of ATP and the test compound of interest. 30 μL of the stock solution was placed in a 96 well plate followed by addition of 2 μL of DMSO stock containing serial dilutions of the test compound (typically starting from a final concentration of 10 μM with 2-fold serial dilutions) in duplicate (final DMSO concentration 5%). The plate was pre-incubated for 10 minutes at 25° C. and the reaction initiated by addition of 8 μL [γ-33P]ATP (final concentration 75 μM).
(§2) The reaction was stopped after 60 minutes by the addition of 100 μL 0.14M phosphoric acid. A multiscreen phosphocellulose filter 96-well plate (Millipore, Cat No. MAPHN0B50) was pretreated with 100 μL 0.2M phosphoric acid prior to the addition of 125 μL of the stopped assay mixture. The plate was washed with 4×200 μL 0.2 M phosphoric acid. After drying, 100 μL Optiphase ‘SuperMix’ liquid scintillation cocktail (Perkin Elmer) was added to the well prior to scintillation counting (1450 Microbeta Liquid Scintillation Counter, Wallac).
(§3) After removing mean background values for all of the data points, Ki(app) data were calculated from non-linear regression analysis of the initial rate data using the Prism software package (GraphPad Prism version 3.0cx for Macintosh, GraphPad Software, San Diego Calif., USA).

[3] = target: PLK2 (Homo sapiens, UniProt Q9NYY3); assay: PLK2 Inhibition Assay (radioactive-phosphate incorporation); conditions: selectivity ratio, PLK2 over PLK1
Protocol: as §1
Compounds were screened for their ability to inhibit PLK2 using a radioactive-phosphate incorporation assay. Assays were carried out in a mixture of 25 mM HEPES (pH 7.5), 10 mM MgCl2, 0.1% BSA, and 2 mM DTT. Final substrate concentrations were 200 μM [γ-33P]ATP (57 mCi 33P ATP/mmol ATP, Amersham Pharmacia Biotech/Sigma Chemicals) and 300 μM peptide (KKKISDELMDATFADQEAK) [SEQ ID:3]. Assays were carried out at 25° C. in the presence of 25 nM PLK2. An assay stock buffer solution was prepared containing all of the reagents listed above, with the exception of ATP and the test compound of interest. 30 μL of the stock solution was placed in a 96 well plate followed by addition of 2 μL of DMSO stock containing serial dilutions of the test compound (typically starting from a final concentration of 10 μM with 2-fold serial dilutions) in duplicate (final DMSO concentration 5%). The plate was pre-incubated for 10 minutes at 25° C. and the reaction initiated by addition of 8 μL [γ-33P]ATP (final concentration 200 μM).
as §2, with “90” for “60”, “0.14 M” for “0.14M”
as §3

T1 sequence (Q9H4B4 58-340 limits assumed): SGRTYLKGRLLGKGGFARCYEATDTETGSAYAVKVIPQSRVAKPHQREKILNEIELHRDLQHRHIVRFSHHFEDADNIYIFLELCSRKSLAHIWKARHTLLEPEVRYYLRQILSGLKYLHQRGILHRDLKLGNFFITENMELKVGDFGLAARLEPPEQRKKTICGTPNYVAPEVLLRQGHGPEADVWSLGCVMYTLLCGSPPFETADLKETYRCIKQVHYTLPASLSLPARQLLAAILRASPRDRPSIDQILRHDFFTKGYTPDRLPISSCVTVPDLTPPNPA
Sequence of PLK1 (P53350 whole entry): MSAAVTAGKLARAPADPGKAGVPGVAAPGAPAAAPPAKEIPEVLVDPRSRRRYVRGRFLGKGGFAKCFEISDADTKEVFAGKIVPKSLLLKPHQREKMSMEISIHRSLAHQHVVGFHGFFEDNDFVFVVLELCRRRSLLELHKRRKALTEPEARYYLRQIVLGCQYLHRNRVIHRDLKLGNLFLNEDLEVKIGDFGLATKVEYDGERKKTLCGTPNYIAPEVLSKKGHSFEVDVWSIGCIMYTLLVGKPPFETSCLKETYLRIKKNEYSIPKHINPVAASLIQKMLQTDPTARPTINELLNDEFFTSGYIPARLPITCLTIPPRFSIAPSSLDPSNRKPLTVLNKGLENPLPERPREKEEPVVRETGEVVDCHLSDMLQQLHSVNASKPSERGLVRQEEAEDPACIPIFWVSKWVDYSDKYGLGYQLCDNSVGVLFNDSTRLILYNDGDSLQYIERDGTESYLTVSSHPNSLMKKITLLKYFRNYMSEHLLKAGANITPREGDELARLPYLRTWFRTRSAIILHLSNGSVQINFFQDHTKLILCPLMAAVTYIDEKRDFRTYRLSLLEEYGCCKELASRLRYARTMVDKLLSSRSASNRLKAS
Sequence of PLK2 (Q9NYY3 whole entry): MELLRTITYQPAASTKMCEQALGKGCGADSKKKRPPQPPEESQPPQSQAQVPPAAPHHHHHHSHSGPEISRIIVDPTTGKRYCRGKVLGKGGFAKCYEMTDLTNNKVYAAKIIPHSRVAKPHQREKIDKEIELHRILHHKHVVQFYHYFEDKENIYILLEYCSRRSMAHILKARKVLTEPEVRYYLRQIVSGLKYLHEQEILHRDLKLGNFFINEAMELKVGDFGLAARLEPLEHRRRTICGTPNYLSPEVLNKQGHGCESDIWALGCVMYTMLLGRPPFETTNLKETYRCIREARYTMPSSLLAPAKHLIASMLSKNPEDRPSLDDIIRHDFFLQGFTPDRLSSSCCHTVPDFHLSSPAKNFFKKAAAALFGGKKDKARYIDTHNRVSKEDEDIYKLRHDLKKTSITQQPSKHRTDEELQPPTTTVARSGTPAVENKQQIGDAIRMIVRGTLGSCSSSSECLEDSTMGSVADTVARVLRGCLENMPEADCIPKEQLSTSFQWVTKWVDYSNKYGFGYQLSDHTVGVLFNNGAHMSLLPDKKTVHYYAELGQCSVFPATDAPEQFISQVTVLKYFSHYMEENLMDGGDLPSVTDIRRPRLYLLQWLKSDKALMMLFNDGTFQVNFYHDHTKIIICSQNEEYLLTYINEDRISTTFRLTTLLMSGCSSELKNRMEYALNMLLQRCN

Row | Ki [1] | Ki(PLK3)/Ki(PLK1) [2] | Ki(PLK2)/Ki(PLK1) [3] | Compound
1 | < 3 nM | 919 | 313 | CNCCN(C)c1ccc([C@@H](C)Nc2ncc(C#N)c(-c3c[nH]c4ncc(C(F)(F)F)cc34)n2)cn1 [Compound I-275, 2-((R)-1-(6-(methyl(2-(methylamino)ethyl)amino)pyridin-3-yl)ethylamino)-4-(5-(trifluoromethyl)-1H-pyrrolo[2,3-b]pyridin-3-yl)pyrimidine-5-carbonitrile]
2 | < 3 nM | 163 | 180 | CC(Nc1ncc(C#N)c(-c2c[nH]c3ncc(C(F)(F)F)cc23)n1)c1ccc(N2CCCNCC2)cc1 (stereo not drawn) [Compound I-131, 2-(1-(4-(1,4-diazepan-1-yl)phenyl)ethylamino)-4-(5-(trifluoromethyl)-1H-pyrrolo[2,3-b]pyridin-3-yl)pyrimidine-5-carbonitrile]
3 | 3 to 40 nM | 70 | 63 | C[C@H](Nc1ncc(C#N)c(-c2c[nH]c3ncc(C(F)(F)F)cc23)n1)c1ccc(N2CCN(C)CC2)nc1 [Compound I-148]
4 | < 3 nM | 126 | 211 | CC(Nc1ncc(C#N)c(-c2c[nH]c3ncc(C(F)(F)F)cc23)n1)c1ccc(N2CCCN(C)CC2)cc1 (stereo not drawn) [Compound I-126, 2-(1-(4-(4-methyl-1,4-diazepan-1-yl)phenyl)ethylamino)-4-(5-(trifluoromethyl)-1H-pyrrolo[2,3-b]pyridin-3-yl)pyrimidine-5-carbonitrile]
